In ChEMBL document CHEMBL5104097, “Discovery of Cysteine-targeting Covalent Protein Kinase Inhibitors” (J Med Chem, 2022):

Experiments:
BaF3 [1] = test: Antiproliferative activity against mouse BaF3 cells harboring wild-type FGFR3 assessed as reduction in cell proliferation measured after 72 hrs by MTS assay; format: functional, cell-based; conditions: BaF3, 72 h
BaF3 [2] = test: Antiproliferative activity against mouse BaF3 cells harboring wild-type FGFR1 assessed as reduction in cell proliferation measured after 72 hrs by MTS assay; format: functional, cell-based; conditions: BaF3, 72 h
BaF3 [3] = test: Antiproliferative activity against mouse BaF3 cells harboring wild-type FGFR2 assessed as reduction in cell proliferation measured after 72 hrs by MTS assay; format: functional, cell-based; conditions: BaF3, 72 h
BaF3 [4] = test: Antiproliferative activity against mouse BaF3 cells harboring FGFR2 V564M mutant assessed as reduction in cell proliferation measured after 72 hrs by MTS assay; format: functional, cell-based; conditions: BaF3, 72 h
BaF3 [5] = test: Antiproliferative activity against mouse BaF3 cells harboring wild-type FGFR4 assessed as reduction in cell proliferation measured after 72 hrs by MTS assay; format: functional, cell-based; conditions: BaF3, 72 h
[6] = Inhibition of SRC T338M mutant (unknown origin); set-up: species or system Homo sapiens

EC50 (BaF3 [1])	EC50 (BaF3 [2])	EC50 (BaF3 [3])	EC50 (BaF3 [4])	EC50 (BaF3 [5])	IC50 [6]	SMILES
1 nM	1 nM	1 nM	58 nM	1 nM	–	C=CC(=O)Nc1ccc(CN2C(=O)N(c3cc(OC)cc(OC)c3)Cc3cnc(Nc4ccc(N5CCN(C)CC5)cc4)nc32)cc1
1 nM	1 nM	1 nM	64 nM	1 nM	–	C=CC(=O)Nc1ccc(CN(C(=O)Nc2c(Cl)c(OC)cc(OC)c2Cl)c2cc(Nc3ccc(N4CCN(C)CC4)cc3)ncn2)cc1
–	–	–	–	–	44 nM	C=CS(=O)(=O)NCCC(=O)Nc1cccc(Nc2nccc(Nc3ncc(C(=O)Nc4c(C)cccc4Cl)s3)n2)c1
